Patent EP0552417B1, “Cyclic peptides and use thereof” (priority 1991, dated 1993)
Where two headings read alike, the source gives them in different places. Non-standard residues stand in square brackets, D forms with d. Residues, ends and D or L forms follow the SMILES beside them. Groups on a side chain read outwards from the residue. *: point of attachment. NHPhenethyl = c1ccc(CCN*)cc1; X2 = c1ccc2c(c1)CCN2*; NHBn = c1ccc(CN*)cc1

What was measured:
NK2 receptor = target: T1, NK2 receptor (Bos taurus, UniProt P05363); assay: Assay of affinity for receptor (3): binding inhibiting activity on NK2 receptor, 125I-neurokinin A, membrane fraction of bovine third stomach inner wall; details: 125I-NKA, 25°C, 3 hours
T1 construct: The membrane fraction containing the receptor was prepared from the inner wall of the bovine third stomach; tissue Kyoto Chuo Chikusan Fukuseibutsu Oroshi Kyoukai (tissue); host or cells: inner wall of bovine third stomach, membrane fraction
T1 sequence (P05363 1-384): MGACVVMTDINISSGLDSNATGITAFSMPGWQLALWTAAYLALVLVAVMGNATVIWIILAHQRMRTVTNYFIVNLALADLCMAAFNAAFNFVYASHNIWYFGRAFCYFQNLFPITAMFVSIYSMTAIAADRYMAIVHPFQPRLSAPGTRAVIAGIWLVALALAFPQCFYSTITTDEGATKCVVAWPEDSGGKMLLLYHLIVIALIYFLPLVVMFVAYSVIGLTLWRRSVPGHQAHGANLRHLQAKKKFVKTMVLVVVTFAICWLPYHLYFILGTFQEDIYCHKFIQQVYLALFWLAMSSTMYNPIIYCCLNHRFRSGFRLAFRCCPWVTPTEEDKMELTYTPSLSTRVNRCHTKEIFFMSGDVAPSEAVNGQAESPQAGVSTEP
Protocol: Assay of Affinity for Receptor (3) ... Binding Inhibiting Activity on NK2 Receptor
The method of Paul L. M. Van Giersbergen et al. [Proc. Natl. Acad. Sci. U.S.A., 88, 1661 (1991) was modified for this assay. The membrane fraction containing the receptor was prepared from the inner wall of the bovine third stomach (purchased from Kyoto Chuo Chikusan Fukuseibutsu Oroshi Kyoukai).
The inner wall of the bovine third stomach stored at-80°C was cut to 1 cm X 1 cm or less, and disrupted in 3 liters/kg of 50 mM Tris-HCl buffer (pH 7.4) supplemented with 120 mM sodium chloride, 5 mM potassium chloride, 0.02% BSA and 5% sucrose, using a polytron homogenizer (Kinematika, Germany). Then, the disrupted product was centrifuged at 1,000 X g for 10 minutes. The supernatant was further centrifuged at 45,000 X g for 20 minutes. The precipitate was suspended in 200 ml of 50 mM Tris-HCl buffer (pH 7.4) supplemented with 300 mM potassium chloride, 10 mM ethylenediaminetetraacetic acid, 0.1 mM phenylmethylsulfonium fluoride and 0.02% BSA, and gently stirred under ice cooling for 60 minutes. The suspension was centrifuged at 45,000 X g for 20 minutes. The precipitate was washed with 200 ml of 50 mM Tris-HCl buffer (pH 7.4), and stored in the frozen state at -40°C as a receptor sample.
This sample was suspended in a reaction buffer solution [50 mM Tris-HCl buffer (pH 7.4), 0.02% bovine serum albumin and 4 mM manganese chloride] so as to give a protein concentration of 0.7 mg/ml, and 100 µl thereof was used for reaction. A test sample and ^125I-NKA (0.61 KBq, ^125I-neurokinin A, 81.4 TBq/mmol, Du Pont/NEN Research Products, U.S.A.) were also added, and reacted in 0.2 ml of the reaction buffer solution at 25°C for 3 hours. The reaction mixture was rapidly filtered through a glass filter (GF/B, Whatman, U.S.A.) using a cell harvester (Type 290PHD, Cambridge Technology Inc.) to terminate the reaction, and washed 3 times with 250 µl of 50 mM Tris-HCl buffer (pH 7.4) supplemented with 0.02% bovine serum albumin. The radioactivity left on the filter was measured with a gamma-ray counter. Results are shown in Table 1 as the binding inhibiting activity (IC50, unit: µM) on the NK2 receptor.

[1] = target: T2, endothelin receptor A (ETA) (Sus scrofa, UniProt Q29010); assay: Assay of affinity for receptor (1): binding activity on ETA receptor, 125I-labeled endothelin-1, porcine heart membrane fraction; set-up: key: relative specific activity; reference cyclic pentapeptide ETA binding = 1.0; details: specific activity, taking the binding activity of control cyclo[-D-Glu-Ala-D-aIle-Leu-D-Trp-] on receptor A as 1.0, 25°C, 1 hour
T2 construct: A membrane fraction prepared from the porcine heart; from tissue; host or cells: porcine heart membrane fraction
T2 sequence (Q29010 21-427): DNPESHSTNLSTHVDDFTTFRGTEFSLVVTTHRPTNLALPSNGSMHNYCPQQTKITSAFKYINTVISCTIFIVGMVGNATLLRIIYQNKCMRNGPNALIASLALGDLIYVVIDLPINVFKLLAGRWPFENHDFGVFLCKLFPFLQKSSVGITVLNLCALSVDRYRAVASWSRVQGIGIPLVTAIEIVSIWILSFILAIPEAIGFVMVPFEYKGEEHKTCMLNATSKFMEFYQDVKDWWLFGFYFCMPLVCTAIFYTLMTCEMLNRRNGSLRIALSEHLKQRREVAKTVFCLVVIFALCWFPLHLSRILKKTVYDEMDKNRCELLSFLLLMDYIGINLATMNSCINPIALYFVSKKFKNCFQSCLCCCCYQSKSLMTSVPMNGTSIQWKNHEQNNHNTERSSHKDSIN
In short: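 Porcine heart membranes (0.15 mg/ml) incubated with 125I-endothelin-1 and test peptide for 1 h at 25°C, then centrifuged; pellet-bound radioactivity counted by gamma counter. Values given as specific activity relative to reference cyclo[-D-Glu-Ala-D-aIle-Leu-D-Trp-], set at 1.0.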

ETB = ETB radio receptor assay *2, 125I-endothelin-1, guinea pig kidney crude membrane fraction; type: binding, Guinea pigs; details: relative activity, 37 °C, 90 minutes
In short: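 Radioligand binding used crude guinea pig kidney membranes (2.1 µg protein) with 740 Bq 125I-endothelin-1. Incubation was 90 min at 37 °C in 50 mM Tris-HCl pH 7.4, 0.1 mM PMSF, 1 mM EDTA, 0.2% BSA. Bound radioactivity was collected by GF/B filtration and measured by gamma counting.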

[2] = target: T3, endothelin receptor B (ETB) (Bos taurus, UniProt P28088); assay: Assay of affinity for receptor (2): binding activity on ETB receptor *1, 125I-labeled endothelin-1, bovine brain membrane fraction; details: specific activity, taking the binding activity of the compound of Example 8 on receptor B as 100, 25°C, 1 hour
T3 construct: A membrane fraction prepared from the bovine brain; from tissue; host or cells: bovine brain membrane fraction
T3 sequence (P28088 27-441): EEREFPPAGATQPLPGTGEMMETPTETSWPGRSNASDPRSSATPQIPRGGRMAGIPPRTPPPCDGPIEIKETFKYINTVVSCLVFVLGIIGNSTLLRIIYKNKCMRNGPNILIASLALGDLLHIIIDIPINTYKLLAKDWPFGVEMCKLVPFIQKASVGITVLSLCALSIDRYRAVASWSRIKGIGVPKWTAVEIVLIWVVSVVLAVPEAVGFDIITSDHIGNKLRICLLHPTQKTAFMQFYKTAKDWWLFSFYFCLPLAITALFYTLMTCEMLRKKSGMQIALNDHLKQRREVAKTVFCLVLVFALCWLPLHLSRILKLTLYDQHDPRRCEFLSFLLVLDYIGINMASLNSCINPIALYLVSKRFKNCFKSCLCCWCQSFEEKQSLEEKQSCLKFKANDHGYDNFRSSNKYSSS
Protocol: Assay of Affinity for Receptor (2) ... Binding Activity on ETB Receptor *1
A membrane fraction prepared from the bovine brain was diluted to 0.15 mg/ml by using a buffer solution for assay, and 100 µl of the resulting suspension of the membrane fraction was poured into each assay tube to use for assay. To this suspension of the membrane fraction was added 2 µl of 5 nM ^125I labeled endothelin-1 solution. Further, 3 µl of a test peptide solution was added thereto, followed by incubation at a temperature of 25°C for 1 hour. Then, the resulting suspension was diluted with 900 µl of the buffer solution for assay cooled with ice, and thereafter separated into a supernatant and a precipitate by centrifugation at 12,000 X g for 10 minutes. Cell membranes and an endothelin receptor B (ETB) embedded therein were contained in the precipitate, and radioactive iodine-labeled endothelin bound to the receptor was also recovered in the precipitate. Accordingly, the amount of radioactive iodine-labeled endothelin bound to the endothelin receptor B (ETB) was determined by measuring the amount of radioactive iodine contained in the precipitate with a gamma-ray counter. The numerical value of ETB shown in Table 1 is the value of specific activity, taking the binding activity of the compound of Example 8 on the receptor B as 100.

[3] = amide bond, DCC/HONB (active ester), TEA, DMF, 16.0 h, 4 steps
[4] = amide bond; 18-membered ring; HONB/DCC preactivation; HCl; DIEA; DMF; 4.75 mM; 3 steps

Row | IC50 (NK2 receptor) | Binding Activity on ET Receptor (R. act.) ETA [1] | Binding Activity on ET Receptor (R. act.) ETB*2 (ETB) | Compound | further results
1 | 2.6 µM | 4.0 | 7.7 | CC(C)C[C@@H]1NC(=O)[C@H](CC(=O)O)NC(=O)[C@@H](CC(=O)O)NC(=O)[C@@H](Cc2c[nH]c3ccccc23)NC(=O)[C@H](CC(C)C)NC(=O)[C@@H](CC(C)C)NC1=O [Example 32, Cyclo[-D-Asp-Asp-Leu-D-Leu-Leu-D-Trp-]] (cyclo(DL[dL]L[dW][dD])) | 
2 | 0.35 µM | 2.9 | 5.6 | CC(C)C[C@@H]1NC(=O)[C@@H](CC(C)C)NC(=O)[C@H](Cc2c[nH]c3ccccc23)NC(=O)[C@H](CC(=O)O)NC(=O)[C@@H](CC(=O)O)NC(=O)[C@@H](Cc2c[nH]c3ccccc23)NC1=O [Example 33, Cyclo[-D-Asp-Asp-Trp-D-Leu-Leu-D-Trp-]] (cyclo(DW[dL]L[dW][dD])) | 
3 |  | 1 | 44 | CC(C)C[C@@H]1NC(=O)[C@@H](Cc2ccccc2)NC(=O)[C@H](CC(=O)O)NC(=O)[C@H](Cc2c[nH]c3ccccc23)NC(=O)[C@@H](CC(=O)O)NC(=O)[C@@H](Cc2c[nH]c3ccccc23)NC1=O [Example 60, Cyclo[-D-Asp-Trp-Asp-D-Phe-Leu-D-Trp-]] (cyclo(D[dF]L[dW][dD]W)) | Binding Activity on ET Receptor (R. act.) ETB*1 [2]: 210
4 | 4 µM |  |  | CC(C)C[C@@H]1NC(=O)[C@@H](CC(C)C)NC(=O)[C@H](CC(=O)O)NC(=O)[C@H](CC(=O)N[C@@H](Cc2c[nH]c3ccccc23)C(=O)NCc2ccccc2)NC(=O)[C@@H](CC(=O)O)NC(=O)[C@@H](Cc2c[nH]c3ccccc23)NC1=O [Example 92, Cyclo[-D-Asp-Asp(Trp-NHBzl)-Asp-D-Leu-Leu-D-Trp-]] (cyclo(D([Trp-NHBn])D[dL]L[dW][dD])) | 
5 |  |  |  | CC(C)C[C@@H]1NC(=O)[C@@H](c2cccs2)NC(=O)[C@H](CC(=O)O)NC(=O)[C@H](CCC(=O)NCc2ccccc2)NC(=O)[C@@H](CC(=O)O)NC(=O)[C@@H](Cc2c[nH]c3ccccc23)NC1=O [cyclo[-D-Asp-Gln(Bzl)-Asp-D-Thg(2)-Leu-D-Trp-]] | ring closure, yield of all isomers ([3]; from CC(C)C[C@H](NC(=O)[C@H](NC(=O)OC(C)(C)C)c1cccs1)C(=O)N[C@H](Cc1c[nH]c2ccccc12)C(=O)N[C@H](CC(=O)OCc1ccccc1)C(=O)N[C@@H](CCC(=O)NCc1ccccc1)C(=O)N[C@@H](CC(=O)OCc1ccccc1)C(=O)O, 5.06 mM): 8.8%
6 |  |  |  | CC(C)C[C@@H]1NC(=O)[C@@H](c2cccs2)NC(=O)[C@H](CC(=O)O)NC(=O)[C@@H]2C[C@@H](OCc3ccccc3)CN2C(=O)[C@@H](CC(=O)O)NC(=O)[C@@H](Cc2c[nH]c3ccccc23)NC1=O [cyclo[-D-Asp-Hyp(Bzl)-Asp-D-Thg(2)-Leu-D-Trp-]] | ring closure, yield of all isomers ([3]; from CC(C)C[C@H](NC(=O)[C@H](NC(=O)OC(C)(C)C)c1cccs1)C(=O)N[C@H](Cc1c[nH]c2ccccc12)C(=O)N[C@H](CC(=O)OCc1ccccc1)C(=O)N1C[C@H](OCc2ccccc2)C[C@H]1C(=O)N[C@@H](CC(=O)OCc1ccccc1)C(=O)O, 4.98 mM): 5.7%
7 |  |  |  | CC(C)C[C@@H]1NC(=O)[C@@H](CC(C)C)NC(=O)[C@H](CC(=O)O)NC(=O)[C@H](CCCNC(=O)c2ccccc2)NC(=O)[C@@H](CC(=O)O)NC(=O)[C@@H](Cc2c[nH]c3ccccc23)NC1=O [cyclo[-D-Asp-Orn(COPh)-Asp-D-Leu-Leu-D-Trp-]] | ring closure, yield of all isomers ([3]; from CC(C)C[C@H](NC(=O)[C@@H](CC(C)C)NC(=O)[C@H](CC(=O)OCc1ccccc1)NC(=O)[C@H](CCCNC(=O)c1ccccc1)NC(=O)OC(C)(C)C)C(=O)N[C@H](Cc1c[nH]c2ccccc12)C(=O)N[C@H](CC(=O)OCc1ccccc1)C(=O)O, 5.03 mM): 48.1%
8 |  |  |  | cyclo[-D-Asp(OBzl)-Asn(NHCH2CH2Ind)-Asp(OBzl)-D-Thg(2)-Leu-D-Trp-] | ring closure, crude yield [4]: 90.4%

Row | Compound | IC50 (NK2 receptor) | Binding Activity on ET Receptor (R. act.) ETA [1] | Binding Activity on ET Receptor (R. act.) ETB*2 (ETB) | further results
9 | CC(C)C[C@@H]1NC(=O)[C@@H](CC(C)C)NC(=O)[C@H](CC(=O)O)NC(=O)[C@H](CCC(=O)N2CCc3ccccc32)NC(=O)[C@@H](CC(=O)O)NC(=O)[C@@H](Cc2c[nH]c3ccccc23)NC1=O [Example 76, Cyclo[-D-Asp-Glu(R3)-Asp-D-Leu-Leu-D-Trp-]] (cyclo(D[dL]L[dW][dD]E(X2))) | 10 µM |  |  | 
10 | CC(C)C[C@@H]1NC(=O)[C@@H](CC(C)C)NC(=O)[C@H](CC(=O)O)NC(=O)[C@H](CC(=O)N[C@@H](Cc2c[nH]c3ccccc23)C(=O)NCCc2ccccc2)NC(=O)[C@@H](CC(=O)O)NC(=O)[C@@H](Cc2c[nH]c3ccccc23)NC1=O [Example 94, Cyclo[-D-Asp-Asp(Trp-NHCH2CH2Ph)-Asp-D-Leu-Leu-D-Trp-]] (cyclo(D([Trp-NHPhenethyl])D[dL]L[dW][dD])) | 5.8 µM |  |  | 
